Assay results taken from the supplement of paper PMC10307832.

Tests used:
Test in all cases: relative viability (nuclei count vs DMSO), 5 days (fraction); higher = more cells survive
[1] = test system: HCC-827
How it was run: (§1)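 Relative viability was taken as the ratio of nuclei in treated wells to nuclei in vehicle wells. Lung cancer cell lines in 1536-well plates received compounds by pin tool one day after seeding, either one drug alone or a fixed anchor-drug dose plus five library-drug doses (not always all listed) in √10 steps. Nuclei were counted on 4× images after 5 days of treatment, and values are medians of duplicate plates.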

[2] = test system: NCI-H520
How it was run: as §1

[3] = test system: EMC-BAC-2
How it was run: as §1

[4] = test system: ChaGo-K-1
How it was run: as §1

[5] = test system: NCI-H1563
How it was run: as §1

[6] = test system: NCI-H1944
How it was run: as §1

[7] = test system: NCI-H2087
How it was run: as §1

[8] = test system: NCI-H2405
How it was run: as §1

[9] = test system: SK-MES-1
How it was run: as §1

[10] = test system: NCI-H1355
How it was run: as §1

[11] = test system: LCLC-97TM1
How it was run: as §1

[12] = test system: NCI-H322M
How it was run: as §1

[13] = test system: NCI-H2085
How it was run: as §1

[14] = test system: LCLC-103H
How it was run: as §1

[15] = test system: UMC-11
How it was run: as §1

[16] = test system: NCI-H650
How it was run: as §1

[17] = test system: HCC-44
How it was run: as §1

[18] = test system: EPLC-272H
How it was run: as §1

[19] = test system: NCI-H1651
How it was run: as §1

[20] = test system: NCI-H1793
How it was run: as §1

[21] = test system: H3255
How it was run: as §1

[22] = test system: NCI-H1395
How it was run: as §1

[23] = test system: NCI-H2023
How it was run: as §1

O=C(O)c1ccc(-c2c[nH]c3ncc(-c4ccccc4)cc23)cc1C1CCCC1 + CS(=O)(=O)N1CCN(Cc2cc3nc(-c4cccc5[nH]ncc45)nc(N4CCOCC4)c3s2)CC1 [Pictilisib] (partner 1 µM)
relative viability ([1]; first compound 0.04 µM): 1.12
relative viability ([1]; first compound 0.1265 µM): 1.12
relative viability ([1]; first compound 0.4 µM): 0.965
relative viability ([1]; first compound 1.265 µM): 0.859
relative viability ([2]; first compound 0.04 µM): 0.288
relative viability ([2]; first compound 0.1265 µM): 0.268
relative viability ([2]; first compound 0.4 µM): 0.299
relative viability ([2]; first compound 1.265 µM): 0.262
relative viability ([3]; first compound 0.04 µM): 0.555
relative viability ([3]; first compound 0.1265 µM): 0.557
relative viability ([3]; first compound 0.4 µM): 0.537
relative viability ([3]; first compound 1.265 µM): 0.554
relative viability ([4]; first compound 0.04 µM): 0.788
relative viability ([4]; first compound 0.1265 µM): 1.11
relative viability ([4]; first compound 0.4 µM): 0.649
relative viability ([4]; first compound 1.265 µM): 0.923
relative viability ([5]; first compound 0.04 µM): 0.604
relative viability ([5]; first compound 0.1265 µM): 0.658
relative viability ([5]; first compound 0.4 µM): 0.65
relative viability ([5]; first compound 1.265 µM): 0.742
relative viability ([6]; first compound 0.04 µM): 0.359
relative viability ([6]; first compound 0.1265 µM): 0.338
relative viability ([6]; first compound 0.4 µM): 0.309
relative viability ([6]; first compound 1.265 µM): 0.35
relative viability ([7]; first compound 0.04 µM): 0.963
relative viability ([7]; first compound 0.1265 µM): 1.09
relative viability ([7]; first compound 0.4 µM): 0.758
relative viability ([7]; first compound 1.265 µM): 0.712
relative viability ([8]; first compound 0.04 µM): 0.458
relative viability ([8]; first compound 0.1265 µM): 0.543
relative viability ([8]; first compound 0.4 µM): 0.383
relative viability ([8]; first compound 1.265 µM): 0.408
relative viability ([9]; first compound 0.04 µM): 0.326
relative viability ([9]; first compound 0.1265 µM): 0.399
relative viability ([9]; first compound 0.4 µM): 0.283
relative viability ([9]; first compound 1.265 µM): 0.298
relative viability ([10]; first compound 0.04 µM): 0.481
relative viability ([10]; first compound 0.1265 µM): 0.514
relative viability ([10]; first compound 0.4 µM): 0.4
relative viability ([10]; first compound 1.265 µM): 0.35
relative viability ([11]; first compound 0.04 µM): 0.228
relative viability ([11]; first compound 0.1265 µM): 0.183
relative viability ([11]; first compound 0.4 µM): 0.192
relative viability ([11]; first compound 1.265 µM): 0.17
relative viability ([12]; first compound 0.04 µM): 0.564
relative viability ([12]; first compound 0.1265 µM): 0.526
relative viability ([12]; first compound 0.4 µM): 0.487
relative viability ([12]; first compound 1.265 µM): 0.482
relative viability ([13]; first compound 0.04 µM): 0.431
relative viability ([13]; first compound 0.1265 µM): 0.427
relative viability ([13]; first compound 0.4 µM): 0.536
relative viability ([13]; first compound 1.265 µM): 0.568
relative viability ([14]; first compound 0.04 µM): 0.631
relative viability ([14]; first compound 0.1265 µM): 0.693
relative viability ([14]; first compound 0.4 µM): 0.57
relative viability ([14]; first compound 1.265 µM): 0.632
relative viability ([15]; first compound 0.04 µM): 0.827
relative viability ([15]; first compound 0.1265 µM): 0.937
relative viability ([15]; first compound 0.4 µM): 0.853
relative viability ([15]; first compound 1.265 µM): 0.775
relative viability ([16]; first compound 0.04 µM): 0.993
relative viability ([16]; first compound 0.1265 µM): 0.889
relative viability ([16]; first compound 0.4 µM): 0.701
relative viability ([16]; first compound 1.265 µM): 0.681
relative viability ([17]; first compound 0.04 µM): 0.697
relative viability ([17]; first compound 0.1265 µM): 0.676
relative viability ([17]; first compound 0.4 µM): 0.668
relative viability ([17]; first compound 1.265 µM): 0.56
relative viability ([18]; first compound 0.04 µM): 0.381
relative viability ([18]; first compound 0.1265 µM): 0.318
relative viability ([18]; first compound 0.4 µM): 0.266
relative viability ([18]; first compound 1.265 µM): 0.342
relative viability ([19]; first compound 0.04 µM): 0.557
relative viability ([19]; first compound 0.1265 µM): 0.641
relative viability ([19]; first compound 0.4 µM): 0.451
relative viability ([19]; first compound 1.265 µM): 0.455
relative viability ([20]; first compound 0.04 µM): 0.387
relative viability ([20]; first compound 0.1265 µM): 0.43
relative viability ([20]; first compound 0.4 µM): 0.308
relative viability ([20]; first compound 1.265 µM): 0.336
relative viability ([21]; first compound 0.04 µM): 0.502
relative viability ([21]; first compound 0.1265 µM): 0.529
relative viability ([21]; first compound 0.4 µM): 0.441
relative viability ([21]; first compound 1.265 µM): 0.462
relative viability ([22]; first compound 0.04 µM): 0.769
relative viability ([22]; first compound 0.1265 µM): 0.691
relative viability ([22]; first compound 0.4 µM): 0.625
relative viability ([22]; first compound 1.265 µM): 0.555
relative viability ([23]; first compound 0.04 µM): 0.249
relative viability ([23]; first compound 0.1265 µM): 0.302
relative viability ([23]; first compound 0.4 µM): 0.228
relative viability ([23]; first compound 1.265 µM): 0.224
